The subject of data set [1] is methylguanidine-decomposing enzyme. Description: Inhibition of the enzyme: residual activity after treatment with inhibitor. It is filed as biochemical, Alcaligenes. As to conditions: for Residual activity of enzyme (%): activity without inhibitor = 100; for Inhibition of the enzyme (in words): conditions and concentrations of Table 1. How it is done: A substrate solution having a methylguanidine sulfate concentration of 100 μg/ml is prepared by dissolving methylguanidine sulfate into 0.05 M sodium carbonate-sodium bicarbonate buffer solution (pH 11.0). […] If a precipitate is formed, the precipitate is removed by centrifugation or filtration. Thus, an enzymatic reaction fluid is obtained.
Then, each 50 μl of the enzymatic reaction fluid or the control is mixed with 1.5 ml of 0.1 mM solution of phenanthraquinone in dimethylformamide and 0.25 ml of 1 M aqueous solution of sodium hydroxide and subjected to reaction at room temperature for 40-50 minutes, and then 0.25 ml of concentrated hydrochloric acid and 2.5 ml of water are added. Then, the relative fluorescence intensities of the resulted reaction mixtures are measured with a fluorophotometer at an exciting wave length of 310 nm and a fluorescence wave length of 390 nm. The decrease in methylguanidine content is calculated from the difference in fluorescence intensities between each reaction mixture for the enzymatic reaction and the control.
In the expression of activity, a quantity of enzyme enough to decompose 1 μ-mole of methylguanidine per 1 minute at 30° C. is defined as one unit.

For data set [2] the test system is unchanged. The data set is described as follows: Stabilization of the enzyme. In kind it is physicochemical, Alcaligenes. As to conditions: 10% (V/W) of glycerin added. The source says: The enzyme is stabilized by adding 10% (V/W) of glycerin to it.
Data set [3] shares this test system. Description: Action and substrate specificity of the enzyme. It is filed as biochemical, Alcaligenes. The source says:
This enzyme decomposes methylguanidine to form methylamine and urea: [drawing 1]
This enzyme exerts no action upon guanidoacetic acid (glycocyamine) and guanididosuccinic acid.

[4] abbreviates: 1 mM inhibitor, 30° C., pH 9, 1 hour.
[5] abbreviates: 1 mM inhibitor, 30° C., pH 10, 60 minutes.

The values below come from patent US4247632A (Kikkoman Shoyu Co., Ltd., priority 1978, dated 1981).

The structures appear in SMILES notation.

Turning to `O[C@H](CS)[C@H](O)CS` (racemic) [Dithiothreitol, dithiothreitol], in data set [1] (setting [4]), the “Residual activity of enzyme (%)” value turned out to be 0%. Besides, the “Inhibition of the enzyme (in words)” value in data set [1] is reported as “markedly inhibited”.

`OCCS` [2-Mercaptoethanol, 2-mercaptoethanol]: the “Residual activity of enzyme (%)” value in data set [1] (setting [4]) is recorded as 0%. For the same compound, in data set [1], the “Inhibition of the enzyme (in words)” value is given as “markedly inhibited”. As for `O=[N+]([O-])[O-].[Ag+]` [AgNO3, silver nitrate], the “Residual activity of enzyme (%)” value in data set [1] (setting [5]) was 4%. Further, in data set [1], the “Inhibition of the enzyme (in words)” value is “markedly inhibited”. As to `[Cl][Hg][Cl]` [HgCl2, mercurie chloride], the “Residual activity of enzyme (%)” value in data set [1] (setting [5]) turned out to be 0%. For the same compound, the “Inhibition of the enzyme (in words)” value in data set [1] was “markedly inhibited”. Take `II` [I2, iodine]: in data set [1] (1 mM I2, 40° C., pH 7, 1 hour), the “Residual activity of enzyme (%)” value was 0%. Also, in data set [1], the “Inhibition of the enzyme (in words)” value was “markedly inhibited”. For `OCC(O)CO` [glycerin], the “Stabilization of the enzyme” value in data set [2] is “stabilized”.

As to `N=C(N)NC(CC(=O)O)C(=O)O` (centres unmarked) [guanididosuccinic acid], in data set [3], the “Action of the enzyme upon the substrate” value is given as “no action”. Still for that read-out and setting: as for `N=C(N)NCC(=O)O` [guanidoacetic acid], the entry is “no action”; as for `CNC(=N)N` [methylguanidine], “decomposes”.
